Data taken from patent US20060147558A1, “Remedies” (priority 2000, published 2006).

What was measured:
[1] = tested on: NGF production of L-M cells; test: enhancing activity for NGF production: L-M cells cultured 20 h with sample, NGF in medium by enzyme immunoassay; assay type: cell-based, murine; conditions: for Amount of NGF Produced: control = 100%; for enhancing activity for NGF production: result in words, no value given
Method: L-M cells (ATCC CCL-1.2) from murine fibroblasts were suspended in an M199 medium (manufactured by ICN) containing 0.5% bactopeptone (manufactured by Gibco) so as to have a concentration of 1.5×10^5 cells/ml. The suspension was put in a 96 well plate in an amount of 0.1 ml each well, and the cells were aseptically cultured. After culturing the cells for 3 days, the medium was removed therefrom, and exchanged with an M199 medium containing 0.5% bovine serum albumin (manufactured by Sigma). […] After the termination of the culture, the concentration of the nerve growth factor in the culture medium was assayed by an enzyme immunoassay method (NGF Emax Immuno Assay System, manufactured by Promega). The enhancement for NGF production was expressed, assuming that the NGF concentration in the cell culture medium with no addition of the sample is 100%. The experiment was carried out twice, and an average value was taken. As a result, the yellow pigment from Carthamus tinctorius enhanced NGF production of the L-M cells in a concentration dependent manner.

[2] = tested on: HGF production of MRC-5 cells; test: enhancing activity for HGF production: MRC-5 cells cultured 24 h with sample, HGF in medium by ELISA; assay type: cell-based, human; conditions: for Amount of HGF Produced: control = 100%
Method: (1) The enhancing activity for HGF production of each of the bamboo blade extract (sample (1)) prepared in item (1) of Example 1, and the lower layer fraction (sample (2)) and the upper layer fraction (sample (3)) prepared in item (2) of Example 1 was assayed. Five-hundred microliters each of MRC-5 cells (CCL 171: manufactured by DAINIPPON PHARMACEUTICAL CO., LTD., code. 02-021) suspended in a DME medium containing 10% fetal bovine serum so as to have a concentration of 1×10^5 cells/ml were added into each well of a 48-well cell culture plate. The cells were cultured at 37° C. for 24 hours in the presence of 5% CO2, and then the medium was exchanged for a DME medium containing 1% fetal bovine serum. Thereafter, the sample was added to the medium, and the cells were further cultured for 24 hours. The medium was then collected, and by using Quantikine Human Hepatocyte Growth Factor (HGF) ELISA Kit (manufactured by Funakoshi, Code. RS-0641-00), the amount of HGF in the medium was determined. The amount of HGF produced was expressed, assuming that the value of the negative control is 100%. […] As the negative control, distilled water was added in the same volume as that of the sample. The amount of HGF produced was expressed, assuming that the value of the negative control is 100%. The results for the sample (1) are shown in Table 1, and the results for the sample (2) and the sample (3) are shown in Table 2. Each experiment was carried out twice, and its average value was taken. […] From the above, it was shown that the bamboo blade extract has an enhancing activity for HGF production.

COc1cc(O)c(CC=C(C)C)c(O)c1C(=O)/C=C/c1ccc(O)cc1 [Xanthohumol, xanthohumol]
Amount of NGF Produced ([1]; 12.5 μM): 235.5% | Amount of NGF Produced ([1]; 25 μM): 387.9% | Amount of NGF Produced ([1]; 50 μM): 443.0% | enhancing activity for NGF production [1]: has the activity

COC(=O)/C=C/c1ccc(O)c(O)c1 [18-3 (10.6), caffeic acid methyl ester]
Amount of NGF Produced ([1]; 0.25 mg/ml): 3039.6%

CC(C)=CCC/C(C)=C/Cc1c(O)ccc(C(=O)/C=C/c2ccc(O)cc2)c1O [Xanthoangelol, xanthoangelol]
Amount of NGF Produced ([1]; 25 μM): 126.1% | Amount of NGF Produced ([1]; 50 μM): 202.6% | Amount of NGF Produced ([1]; 100 μM): 265.7%

C/C=C(/C)C(=O)OC1c2c(ccc3ccc(=O)oc23)OC(C)(C)C1O[C@@H]1O[C@H](CO[C@@H]2O[C@H](CO)[C@@H](O)[C@H](O)[C@H]2O)[C@@H](O)[C@H](O)[C@H]1O (stereo partly drawn) [19-, 20-6 (18.8), 4′-O-angeloyl-3′-O-[6-O-(β-D-glucopyranosyl)-β-D-glucopyranosyl]-khellactone]
Amount of NGF Produced ([1]; 1.0 mg/ml): 337.7%

CCOC(=O)/C=C/c1ccc(O)c(O)c1 [28 (91.4), caffeic acid ethyl ester]
Amount of NGF Produced ([1]; 0.05 mg/ml): 1058.1%

COc1ccc(C(=O)O)c2c1CC(O)C(C)(C)O2 (stereo not drawn) [18-4 (10.9), 8-carboxyl-3-hydroxy-5-methoxyl-2-dimethylchroman]
Amount of NGF Produced ([1]; 0.0375 mg/ml): 2510.4%

CC(C)=CCc1c(O[C@@H]2O[C@H](CO)[C@@H](O)[C@H](O)[C@H]2O)ccc2ccc(=O)oc12 [13-2 (8.7), 7-O-β-D-glucopyranosyloxy-8-prenylcoumarin]
Amount of NGF Produced ([1]; 1.0 mg/ml): 792.1%

CC(C)=CCc1cc2ccc(=O)oc2cc1O[C@@H]1O[C@H](CO)[C@@H](O)[C@H](O)[C@H]1O [19-, 20-5 (16.4), 7-β-D-glucopyranosyloxy-6-prenylcoumarin]
Amount of NGF Produced ([1]; 1.0 mg/ml): 487.9%

O=C(/C=C/c1ccc(O)c(O)c1)O[C@@H]1CC(O)(C(=O)O)C[C@@H](OC(=O)/C=C/c2ccc(O)c(O)c2)C1O (stereo partly drawn) [3,5-Dicaffeoyl-quinic Acid, 3,5-dicaffeoyl-quinic acid]
Amount of HGF Produced ([2]; 1 μM): 142% | Amount of HGF Produced ([2]; 10 μM): 206% | Amount of HGF Produced ([2]; 100 μM): 290%

CCOC(=O)/C=C/c1ccc(O)c(O)c1 [Caffeic acid ethyl ester, caffeic acid ethyl ester]
Amount of NGF Produced ([1]; 62.5 μg/ml): 1279.1%

O=C1C([C@@H]2O[C@H](CO)[C@@H](O)[C@H](O)[C@H]2O)=C(O)/C(=C(O)/C=C/c2ccc(O)cc2)C(=O)C1(O)[C@@H]1O[C@H](CO)[C@@H](O)[C@H](O)[C@H]1O (stereo partly drawn) [Safflomin A, safflomin A]
Amount of NGF Produced ([1]; 2.5 mg/ml): 130.7% | enhancing activity for NGF production [1]: has the enhancing activity for NGF production

O=C(/C=C/c1ccc(O)c(O)c1)O[C@@H]1C[C@](O)(C(=O)O)C[C@@H](O)[C@H]1O [Chlorogenic Acid, chlorogenic acid]
Amount of HGF Produced ([2]; 1 μM): 105% | Amount of HGF Produced ([2]; 10 μM): 122% | Amount of HGF Produced ([2]; 100 μM): 302% | Amount of HGF Produced ([2]; 500 μM): 479% | Amount of HGF Produced ([2]; 1000 μM): 624% | enhancing activity for HGF production ([2]; result in words, no value given): enhancing activity for HGF production existed

CC1(C)Oc2ccc3ccc(=O)oc3c2C(O)C1OC1OC(CO)C(O)C(O)C1O [10 (62.2), 3′-O-β-D-glucopyranoyl khellactone]
Amount of NGF Produced ([1]; 2.0 mg/ml): 565.5%

COc1cc(O)c(CC=C(C)C)c2c1C(=O)CC(c1ccc(O)cc1)O2 (stereo not drawn) [Isoxanthohumol, isoxanthohumol]
Amount of NGF Produced ([1]; 50 μM): 110.7% | Amount of NGF Produced ([1]; 100 μM): 121.4% | Amount of NGF Produced ([1]; 200 μM): 198.0%

COC(=O)/C=C/c1ccc(O)c(O)c1 [Caffeic acid methyl ester, caffeic acid methyl ester]
Amount of NGF Produced ([1]; 62.5 μg/ml): 824.4%
